According to patent US20160318856A1, “Substituted Urea eIF2alpha Kinase Activators” (THE BRIGHAM AND WOMEN'S HOSPITAL, INC., priority 2013, published 2016):
Where two headings read alike, the source gives them in different places.

What was measured:
[1] = test system: CRL-2813 human melanoma cancer cells; assay: cell proliferation (SRB) assay, CRL-2813; format: cell-based; settings: read-out: IC50
Procedure: Cells were seeded in 96-well plates and maintained for 5 days in the presence of 0.5 to 20 μM of individual compound, and cell proliferation was measured by the sulforhodamine B (SRB) assay as described previously (see, for example, Palakurthi, S. S. et al. Cancer Research 2000, 60(11), 2919-2925). Briefly, at the end of a 5-day treatment, cells were fixed in 10% cold trichloroacetic acid. Cell number was estimated by measuring the remaining bound dye of sulforhodamine B after washing. The percentage of growth was calculated by using the equation: 100×[(T−T0)/(C−T0)], where T and C represent the absorbance in treated and control cultures at Day 5, and T0 at time zero, respectively. If T is less than T0, cell death has occurred and can be calculated from 100×[(T−T0)/T0].

[2] = test system: eIF2α phosphorylation (eIF2•GTP•Met-tRNAi ternary complex; HRI activation); assay: surrogate dual luciferase eIF2α phosphorylation (ternary complex) assay; format: cell-based, human; settings: ternary complex assay, F/R normalized to vehicle (DMSO = 1)
Source text: The dual luciferase expression vector and other plasmids used for these studies were previously described (see, for example, Ziegeler, G. et al. Journal of Biological Chemistry 2010, 285(20), 15408-19). The ternary complex assay, surrogate of eIF2α phosphorylation, has been described elsewhere (see, for example, Chen, T. et al. Nature Chemical Biology 2011, 7(9), 610-6). Briefly, the pBISA vector, which contains seven copies of the tetracycline-regulated transactivator response element (TRE), is flanked on both sides by minimal human cytomegalovirus (CMV) minimal promoters allowing bi-directional transcription and two MCSs (multiple cloning sites). Firefly and renilla luciferases were subcloned into MCS-I and MCS-II, respectively. This plasmid, designated pBISA-DL, transcribes two mRNAs that contain the 90 nucleotide plasmid derived 5′UTR (same sequence in both mRNAs), and the ORF encoding either firefly or renilla luciferase followed by a polyadenylation sequence. This plasmid was further modified by inserting the 5′UTR of ATF-4 mRNA into MCS-I in front of the firefly luciferase mRNA. Transcription from this unit generates an mRNA that contains the firefly luciferase ORF preceded by a 5′UTR composed of 90 nucleotides derived from the plasmid and 267 nucleotides derived from the 5′UTR of ATF-4 mRNA. Transcription from the other unit generates an mRNA that contains the renilla luciferase ORF proceeded only by the 90-nucleotide plasmid-derived sequence in the 5′UTR (pBISA-DL (ATF-4)) (see, for example, Chen, T. et al. Nature Chemical Biology 2011, 7(9), 610-6).
Cells expressing firefly and renilla luciferases were assayed with a dual glow luciferase assay kit, per manufacturer's instruction (Promega Inc., Madison, Wis.). The data calculations were carried out as the ratio of firefly to renilla luciferase signal.
A library of 1900 urea compounds was screened in the surrogate dual luciferase eIF2α phosphorylation (ternary complex) assay. This library was originally assembled and screened for inhibition of sEH by Hammock's group at UC-Davis (see, for example, Chen, T. et al. Nature Chem Biol 2011, 7, 610-616; Ziegeler, G et al. J Biol Chem 2010, 285, 15408-15419). We developed this assay in order to identify compounds that activate HRI, taking advantage of the fact that activated HRI phosphorylates eIF2α thereby reducing the amount of the eIF2•GTP•Met-tRNAi ternary complex that results in inhibition of translation of many mRNAs but paradoxically increases translation of some mRNAs that contain multiple upstream ORF (uORF) in their 5′ untranslated regions (UTRs). In our assay, firefly (F) luciferase mRNA is fused to 5′UTR of activating transcription factor 4 (ATF-4) mRNA that has multiple uORFs while renilla (R) luciferase mRNA is fused to a 5′UTR lacking any uORFs. Compounds that reduce the amount of the ternary complex, such as those activating HRI, would increase F luciferase expression while decreasing the R luciferase expression, resulting in an increased F/R luciferase ratio. To calculate the activity scores, the F/R ratios for every compound-treated wells were normalized to vehicle-treated (DMSO) wells that was arbitrarily set at 1 (F/R=1).

[3] = cell proliferation assay (SRB, 5 days), cell line not named in Table 1, values equal CRL-2813 values of Tables 5/8

SMILES | IC50 [1, 3] | Emax (F/R) [2] | IC50 ([1]; Homo sapiens, CRL2813, 120 h, cell proliferation assay (SRB, 5 days), cell line not named in Table 1, values equal CRL-2813 values of Tables 5/8) | IC50 ([1]; Homo sapiens, CRL2813, cell proliferation assay, Table 3, cell line not named, values equal CRL-2813 values of Table 8) | maximal fold induction ([2]; Homo sapiens, read-out: Emax (F/R))
O=C(Nc1ccccc1F)NC1CCC(Oc2ccc(F)cc2)CC1 (stereo not drawn) [Compound I-1o] | 17.5 ± 1.1 µM | 2.10 F/R |  |  | 
O=C(Nc1ccc(F)cc1)NC1CCC(Oc2ccc(F)cc2)CC1 (stereo not drawn) [Compound I-1p] | 20 ± 2.1 µM | 0.98 F/R |  |  | 
O=C(Nc1ccc(Cl)cc1)NC1CCC(Oc2ccc(F)cc2)CC1 (stereo not drawn) [Compound I-2p] | > 20 µM | 1.65 F/R |  |  | 
O=C(Nc1ccc(Br)cc1)NC1CCC(Oc2ccc(F)cc2)CC1 (stereo not drawn) [Compound I-3p] | > 20 µM | 1.29 F/R |  |  | 
O=C(Nc1ccccc1I)NC1CCC(Oc2ccc(F)cc2)CC1 (stereo not drawn) [Compound I-4o] | > 20 µM | 3.25 F/R |  |  | 
O=C(Nc1ccc(I)cc1)NC1CCC(Oc2ccc(F)cc2)CC1 (stereo not drawn) [Compound I-4p] | 10.2 ± 1.5 µM | 3.77 F/R |  |  | 
O=C(Nc1cccc(C(F)(F)F)c1)NC1CCC(Oc2ccc(F)cc2)CC1 (stereo not drawn) [Compound I-5m] |  |  | 2.6 ± 0.3 µM | 2.6 ± 0.6 µM | 11.8
O=C(Nc1ccccc1C(F)(F)F)NC1CCC(Oc2ccc(F)cc2)CC1 (stereo not drawn) [Compound I-5o] | > 20 µM | 1.56 F/R |  |  | 
O=C(Nc1ccccc1OC(F)(F)F)NC1CCC(Oc2ccc(F)cc2)CC1 (stereo not drawn) [Compound I-6o] | > 20 µM | 1.41 F/R |  |  | 
Cc1cccc(NC(=O)NC2CCC(Oc3ccc(F)cc3)CC2)c1 (stereo not drawn) [Compound I-7m] | 14.4 ± 0.5 µM | 4.73 F/R |  |  | 
Cc1ccccc1NC(=O)NC1CCC(Oc2ccc(F)cc2)CC1 (stereo not drawn) [Compound I-7o] | > 20 µM | 0.98 F/R |  |  | 
Cc1ccc(NC(=O)NC2CCC(Oc3ccc(F)cc3)CC2)cc1 (stereo not drawn) [Compound I-7p] | > 20 µM | 1.05 F/R |  |  | 
COc1cccc(NC(=O)NC2CCC(Oc3ccc(F)cc3)CC2)c1 (stereo not drawn) [Compound I-8m] | 14 ± 1.3 µM | 3.81 F/R |  |  | 
COc1ccccc1NC(=O)NC1CCC(Oc2ccc(F)cc2)CC1 (stereo not drawn) [Compound I-8o] | > 20 µM | 1.51 F/R |  |  | 
COc1ccc(NC(=O)NC2CCC(Oc3ccc(F)cc3)CC2)cc1 (stereo not drawn) [Compound I-8p] | > 20 µM | 0.83 F/R |  |  | 
CSc1cccc(NC(=O)NC2CCC(Oc3ccc(F)cc3)CC2)c1 (stereo not drawn) [Compound I-10m] | 11.1 ± 1.1 µM | 6.67 F/R |  |  | 
CSc1ccccc1NC(=O)NC1CCC(Oc2ccc(F)cc2)CC1 (stereo not drawn) [Compound I-10o] | > 20 µM | 0.92 F/R |  |  | 
CSc1ccc(NC(=O)NC2CCC(Oc3ccc(F)cc3)CC2)cc1 (stereo not drawn) [Compound I-10p] | > 20 µM | 1.07 F/R |  |  | 

The remaining compounds from weak to strong by IC50 [1, 3], led by results:

IC50 [1, 3] | Emax (F/R) [2] | IC50 ([1]; Homo sapiens, CRL2813, 120 h, cell proliferation assay (SRB, 5 days), cell line not named in Table 1, values equal CRL-2813 values of Tables 5/8) | IC50 ([1]; Homo sapiens, CRL2813, cell proliferation assay, Table 3, cell line not named, values equal CRL-2813 values of Table 8) | SMILES | maximal fold induction ([2]; Homo sapiens, read-out: Emax (F/R))
9.1 ± 1 µM | 5.37 F/R |  |  | O=C(Nc1ccccc1Cl)NC1CCC(Oc2ccc(F)cc2)CC1 (stereo not drawn) [Compound I-2o] | 
8.3 ± 0.9 µM | 6.54 F/R |  |  | O=C(Nc1cccc(F)c1)NC1CCC(Oc2ccc(F)cc2)CC1 (stereo not drawn) [Compound I-1m] | 
7.7 ± 0.1 µM | 5.23 F/R |  |  | O=C(Nc1ccccc1Br)NC1CCC(Oc2ccc(F)cc2)CC1 (stereo not drawn) [Compound I-3o] | 
6.7 ± 0.7 µM | 7.47 F/R |  |  | O=C(Nc1cccc([N+](=O)[O-])c1)NC1CCC(Oc2ccc(F)cc2)CC1 (stereo not drawn) [Compound I-9m] | 
6.2 ± 0.3 µM | 9.52 F/R |  |  | O=C(Nc1cccc(Br)c1)NC1CCC(Oc2ccc(F)cc2)CC1 (stereo not drawn) [Compound I-3m] | 
5.9 ± 0.6 µM | 8.76 F/R |  |  | O=C(Nc1cccc(Cl)c1)NC1CCC(Oc2ccc(F)cc2)CC1 (stereo not drawn) [Compound I-2m] | 
5.2 ± 0.2 µM | 10.32 F/R |  |  | O=C(Nc1cccc(I)c1)NC1CCC(Oc2ccc(F)cc2)CC1 (stereo not drawn) [Compound I-4m] | 
3.5 ± 0.3 µM | 2.23 F/R |  |  | O=C(Nc1ccccc1[N+](=O)[O-])NC1CCC(Oc2ccc(F)cc2)CC1 (stereo not drawn) [Compound I-9o] | 
2.8 ± 0.1 µM | 13.99 F/R |  |  | O=C(Nc1ccc(C(F)(F)F)cc1)NC1CCC(Oc2ccc(F)cc2)CC1 (stereo not drawn) [Compound I-5p] | 
2.3 ± 0.1 µM | 9.00 F/R |  |  | O=C(Nc1ccc([N+](=O)[O-])cc1)NC1CCC(Oc2ccc(F)cc2)CC1 (stereo not drawn) [Compound I-9p] | 
